Test system in the first series: not given
Assay: not given
Conditions: not given
T2 sequence (P39086 31-918): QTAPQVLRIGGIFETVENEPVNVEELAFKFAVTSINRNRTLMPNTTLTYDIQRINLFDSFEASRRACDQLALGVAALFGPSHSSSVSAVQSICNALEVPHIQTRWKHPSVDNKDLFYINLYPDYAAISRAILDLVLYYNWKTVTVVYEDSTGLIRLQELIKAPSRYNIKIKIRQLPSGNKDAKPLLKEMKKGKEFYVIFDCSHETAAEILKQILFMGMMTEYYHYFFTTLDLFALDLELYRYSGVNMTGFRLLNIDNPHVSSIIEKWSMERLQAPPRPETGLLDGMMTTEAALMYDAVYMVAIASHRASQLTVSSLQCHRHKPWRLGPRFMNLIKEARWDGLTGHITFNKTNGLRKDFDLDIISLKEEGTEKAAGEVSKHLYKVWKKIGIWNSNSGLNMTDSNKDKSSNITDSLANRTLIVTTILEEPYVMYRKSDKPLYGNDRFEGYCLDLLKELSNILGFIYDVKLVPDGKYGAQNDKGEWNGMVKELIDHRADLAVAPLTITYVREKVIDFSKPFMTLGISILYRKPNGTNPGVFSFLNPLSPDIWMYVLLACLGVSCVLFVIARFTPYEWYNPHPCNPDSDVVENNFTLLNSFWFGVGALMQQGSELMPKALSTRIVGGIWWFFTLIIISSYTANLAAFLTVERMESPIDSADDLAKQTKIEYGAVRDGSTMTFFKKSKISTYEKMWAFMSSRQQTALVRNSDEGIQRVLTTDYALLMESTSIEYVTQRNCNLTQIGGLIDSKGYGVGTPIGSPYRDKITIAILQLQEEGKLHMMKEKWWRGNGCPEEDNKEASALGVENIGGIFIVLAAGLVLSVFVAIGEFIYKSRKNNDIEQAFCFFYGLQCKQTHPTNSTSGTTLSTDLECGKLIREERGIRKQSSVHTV
T1 sequence (Q13002 32-908): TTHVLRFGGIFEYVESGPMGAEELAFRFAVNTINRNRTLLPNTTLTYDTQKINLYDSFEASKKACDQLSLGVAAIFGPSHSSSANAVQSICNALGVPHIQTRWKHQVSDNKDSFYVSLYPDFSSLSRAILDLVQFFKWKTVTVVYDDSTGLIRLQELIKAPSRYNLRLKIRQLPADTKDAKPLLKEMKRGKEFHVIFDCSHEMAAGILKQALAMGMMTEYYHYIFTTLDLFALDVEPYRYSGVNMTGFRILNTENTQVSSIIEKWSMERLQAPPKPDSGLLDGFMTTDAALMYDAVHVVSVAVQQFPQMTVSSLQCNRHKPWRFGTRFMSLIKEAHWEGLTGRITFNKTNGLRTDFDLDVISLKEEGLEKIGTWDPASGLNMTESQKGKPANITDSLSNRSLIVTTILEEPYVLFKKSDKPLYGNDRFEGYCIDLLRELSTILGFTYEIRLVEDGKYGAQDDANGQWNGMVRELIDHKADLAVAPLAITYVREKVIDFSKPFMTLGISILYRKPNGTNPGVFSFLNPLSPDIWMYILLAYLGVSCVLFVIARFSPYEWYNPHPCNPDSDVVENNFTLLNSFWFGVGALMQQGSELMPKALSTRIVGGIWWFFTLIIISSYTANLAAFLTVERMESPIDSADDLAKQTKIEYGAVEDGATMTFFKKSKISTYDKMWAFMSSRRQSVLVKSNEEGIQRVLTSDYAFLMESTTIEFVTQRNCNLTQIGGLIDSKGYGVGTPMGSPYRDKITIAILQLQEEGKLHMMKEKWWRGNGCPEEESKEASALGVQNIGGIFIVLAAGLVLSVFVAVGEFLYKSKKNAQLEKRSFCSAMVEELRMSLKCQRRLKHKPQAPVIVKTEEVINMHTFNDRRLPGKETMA
Turning to `O=C(Nc1cc(Cl)ccc1C(=O)O)Nc1ccccc1C(F)(F)F`, the melting point (in general, the temperature of the solid-liquid transition) is 173 to 175 °C.

In the case of `O=C(Nc1cc2ccccc2[nH]1)Nc1cc(Cl)ccc1S(=O)(=O)O`, the melting point is 277 to 279 °C (dec.).

`O=C(Nc1cccc(C(F)(F)F)c1)Nc1cc(Cl)ccc1C(=O)O`: the melting point lay in the range of 179 to 182 °C.

`O=C(Nc1ccc(O)cc1)Nc1cc(Cl)ccc1C(=O)O`: the melting point was 212 to 214 °C (dec.).

For the compound `O=C(Nc1cccc(O)c1)Nc1cc(Cl)ccc1C(=O)O`, the melting point is 209 to 211 °C.

Regarding `O=C(Nc1ccc2ccccc2c1)Nc1cc(Cl)ccc1C(=O)O` [Compound E2, 4-Chloro-2-(3-naphtalen-2-yl-ureido)-benzoic acid], the melting point was 176 to 179 °C.

In turn, `O=C(Nc1ccccc1)Nc1cc(Cl)ccc1C(=O)O` showed a melting point of 186 to 188 °C.

In the case of `O=C(Nc1cccc(Cl)c1)Nc1cc(Cl)ccc1C(=O)O` [Compound C14, 4-Chloro-2-[3-(3-chloro-phenyl)-ureido]-benzoic acid], the melting point is 207 to 209 °C.

For the compound `O=C(Nc1ccc2ccccc2c1)Nc1cc(Cl)ccc1-c1nnn[nH]1`, the melting point was 167 to 169 °C (dec.).

Turning to `Cc1cc(S(=O)(=O)O)c(NC(=O)Nc2ccc3ccccc3c2)cc1Cl`, the melting point is above 300 °C.

For `O=C(Nc1cc(Cl)ccc1C(=O)O)Nc1ccccc1-c1ccccc1`, the melting point lay within 208 to 209 °C.

Consider `O=C(Nc1cccc(C(F)(F)F)c1)Nc1cc(Cl)ccc1-c1noc(=O)[nH]1`, for which the melting point was 246 to 248 °C (dec.).

On to `O=C(Nc1ccc2c(c1)OCO2)Nc1cc(Cl)ccc1C(=O)O`, for which the melting point lay within 183 to 185 °C.

In turn, `O=C(Nc1cccs1)Nc1cc(Cl)ccc1C(=O)O` returned a melting point of 199 to 200 °C.

In turn, `O=C(Nc1ccc(F)cc1)Nc1cc(Cl)ccc1C(=O)O` had a melting point of 194 to 195 °C.

Turning to `O=C(Nc1ccc2c(c1)-c1ccccc1C2=O)Nc1cc(Cl)ccc1C(=O)O`, the melting point was 260 to 263 °C (dec.).

For `O=C(Nc1ccc(Cl)cc1)Nc1cc(Cl)ccc1C(=O)O`, the melting point fell in the range of 205 to 207 °C.

Compound `O=C(Nc1ccccn1)Nc1cc(Cl)ccc1C(=O)O` yielded a melting point of 222 to 224 °C.

The compound `O=C(Nc1ccccc1Br)Nc1cc(Cl)ccc1C(=O)O` showed a melting point of 195 to 197 °C.

Take `O=C(Nc1ccc(I)cc1)Nc1cc(Cl)ccc1C(=O)O`: the melting point was 209 to 210 °C (dec.).

`O=C(Nc1cccc(I)c1)Nc1cc(Cl)ccc1C(=O)O` had a melting point of 192 to 193 °C.

On to `COc1ccccc1NC(=O)Nc1cc(Cl)ccc1C(=O)O`, for which the melting point is 181 to 183 °C.

Turning to `O=C(Nc1cccc(Br)c1)Nc1cc(Cl)ccc1-c1noc(=O)[nH]1`, the melting point was 210 to 211 °C (dec.).

Turning to `Cc1cc(S(=O)(=O)O)c(NC(=O)Nc2cc3ccccc3[nH]2)cc1Cl`, the melting point was 284 to 286 °C (dec.).

In the case of `O=C(Nc1ccccc1O)Nc1cc(Cl)ccc1C(=O)O`, the melting point is 179 to 180 °C (dec.).

Compound `O=C(Nc1cccc(-c2ccccc2)c1)Nc1cc(Cl)ccc1C(=O)O` had a melting point of 181 to 183 °C.

In turn, `COc1ccc(NC(=O)Nc2cc(Cl)ccc2C(=O)O)cc1` registered a melting point of 194 to 195 °C.

Take `O=C(Nc1ccc(-c2ccccc2)cc1)Nc1cc(Cl)ccc1C(=O)O`: the melting point is 193 to 194 °C.

A further series addresses T1, GluR6 receptor (Homo sapiens, UniProt Q13002).
T1 construct: expressed in transfected cells; host or cells: HEK 293
The series is described as follows: GluR6 functional assay: inhibition of domoate-induced increase in Cai (FLIPR). It is filed as cell-based. The note with it: HEK 293 cells stably expressing GluR6; domoate 0.2 μM; Fluo-4 FLIPR, 25° C. The text has this: (§1) This example describes cell-based assays carried out using human embryonic HEK 293 cells stably expressing GluR5 and GluR6 receptors, respectively, in which assays the inhibition of domoate-induced increase in Cai is used as a measure for glutamate antagonist activity of test substances.
(§2) The intracellular free calcium concentration (Cai) is regulating the majority of metabolic processes in mammalian cells. Elevations of Cai in excitable tissues such as neurones are seen after specific activation of receptor operated calcium channels (e.g. glutamate, receptors), or after depolarisation and opening of voltage operated calcium channels. Some neurotransmitters and neuro-modulator increase Cai by activating G-protein coupled ionophors or by release of Cai from intracellular stores via the second messenger IP3.
(§3) Cai is determined by fluorometric methods in a Fluorescent Image Plate Reader (FLIPR). Calcium-chelating fluorochromes (tetracarboxylic acids) are loaded into the cells as acetoxymethyl esters and subsequently released by an unspecific intracellular esterase. The free acids, which are impermeable to the cell membrane, are maintained in the cell for hours. The fluorescence spectrum (either EXmax, EMmax or both) is changed by the binding of calcium, and the fluorescence is directly proportional to the Cai.
The present method uses the fluorochromes Fluo-3 or Fluo-4 as the calcium-chelator. Fluo-3/Fluo-4 is virtually non-fluorescent without calcium, but the calcium-Fluo-3/Fluo-4 complexes show a bright fluorescence (EMmax=526 nm) after excitation around 500 nm (EXmax=505 nm). This fluorescence spectrum is similar to the spectrum of fluorescein. Since excitation and emission is in the visible light region of the spectrum, standard equipment without quarts optics may be used. […]
(§4) After the loading period, the loading media is aspirated and the cells are washed twice with 100 μl Na^+ free Ringer (NN: 10 mM HEPES, 140 mM Choline chloride, 5 mM KCl, 1 mM MgCl2, 10 mM CaCl2, pH 7.4) to remove extracellular dye. 100 μl NN is added to each well, and the fluorescence is measured in the FLIPR.
(§5) Cells are pre-incubated for 1.5 min with test compound (50 μl) before addition of domoate (50 μl) to a final concentration of 2 μM when determined on GluR5 and 0.2 μM when determined on GluR6. […]
• Temperature: 25° C. • Preincubation: 50 μl test solution at a rate of 30 μl/sec and starting height of 100 μl • […] phase: 50 μl domoate solution (8 μM) at a rate of 35 μl/sec and starting height of 150 μl • Reading intervals: preincubation—10 sec×7 and 3 sec×3 antagonist phase—3 sec×17 and 10 sec×12 […]
Consider “2-[3-(3-Bromo-phenyl)-ureido]-4-chloro-benzenesulfonic acid, triethylammonium salt [Compound A1]”, for which half-maximal inhibition (IC50) required 10 µM.

Turning to `O=C(Nc1ccc2ccccc2c1)Nc1cc(Cl)ccc1C(=O)O` [Compound E2, 4-Chloro-2-(3-naphtalen-2-yl-ureido)-benzoic acid], the midpoint of inhibition, the IC50, lay at 70 µM.

Regarding `O=C(Nc1cccc(Cl)c1)Nc1cc(Cl)ccc1C(=O)O` [Compound C14, 4-Chloro-2-[3-(3-chloro-phenyl)-ureido]-benzoic acid], the IC50 (as a rule, the concentration that inhibits the measured activity by half) turned out to be 37 µM.

Consider `Cc1cc(S(=O)(=O)O)c(NC(=O)Nc2cccc(Br)c2)cc1Cl` [Compound 1a, 2-[3-(3-Bromo-phenyl)-ureido]-4-chloro-5-methyl-benzenesulfonic acid], for which 32 µM corresponded to half-maximal inhibition (IC50).

Another series addresses T2, GluR5 receptor (Homo sapiens, UniProt P39086).
T2 construct: expressed in transfected cells; host or cells: HEK 293
Description: GluR5 functional assay: inhibition of domoate-induced increase in Cai (FLIPR). Format: cell-based. The note with it: HEK 293 cells stably expressing GluR5; domoate 2 μM; Fluo-4 FLIPR, 25° C.
Source text: as §1, §2, §3
The present method uses the fluorochromes Fluo-3 or Fluo-4 as the calcium-chelator. Fluo-3/Fluo-4 is virtually non-fluorescent without calcium, but the calcium-Fluo-3/Fluo-4 complexes show a bright fluorescence (EMmax=526 nm) after excitation around 500 nm (EXmax=505 nm). This fluorescence spectrum is similar to the spectrum of fluorescein. Since excitation and emission is in the visible light region of the spectrum, standard equipment without quarts optics may be used.
The kainate subtype of ionotropic glutamate receptors exists of two high affinity subunits—KA1 and KA2, and three low affinity subunits—GluR5-7. The ion channel in the GluR5 receptor subtype can be made permeable for calcium by substitution of an arginine (R) to a glutamine (Q) in the pore region. The stably expressed human GluR5 receptors used here are calcium permeable (Q), which makes them ideal for fluorescence measurements. […]
as §4, §5
In turn, “2-[3-(3-Bromo-phenyl)-ureido]-4-chloro-benzenesulfonic acid, triethylammonium salt [Compound A1]” registered an IC50 of 1.5 µM.

`O=C(Nc1ccc2ccccc2c1)Nc1cc(Cl)ccc1C(=O)O` [Compound E2, 4-Chloro-2-(3-naphtalen-2-yl-ureido)-benzoic acid]: the IC50 was determined as 1.2 µM.

Compound `O=C(Nc1cccc(Cl)c1)Nc1cc(Cl)ccc1C(=O)O` [Compound C14, 4-Chloro-2-[3-(3-chloro-phenyl)-ureido]-benzoic acid] registered a 50% inhibitory concentration (IC50) of 1.3 µM.

In turn, `Cc1cc(S(=O)(=O)O)c(NC(=O)Nc2cccc(Br)c2)cc1Cl` [Compound 1a, 2-[3-(3-Bromo-phenyl)-ureido]-4-chloro-5-methyl-benzenesulfonic acid] showed a half-maximal inhibitory concentration (IC50) of 1.1 µM.

Values taken from patent publication US7521480B2, “Aryl ureido benzoic acid derivatives and their use” (Neurosearch, priority 2002, dated 2009).
